Source: patent publication US20140121373A1, “PROCESS FOR PREPARING STABLE POLYMORPHIC FORM OF ERLOTINIB HYDROCHLORIDE” (CADILA HEALTHCARE LIMITED, priority 2011, published 2014)

Experiment: Polymorphic stability study of the stable form of Erlotinib hydrochloride (PXRD, DSC, IR on storage)
Type: physicochemical
Conditions: for DSC / IR / PXRD: should comply with data of stable polymorphic form
Procedure: (Refrigerator), 25° C.±2° C./60%±5% RH, 30° C.±2° C./65%±5% RH (Real Time) and 40° C.±2° C./75%±5% RH of the stable form of Erlotinib Hydrochloride.
• Powder X-ray Diffraction: X-ray powder diffraction spectrum was observed on a MF 2100 2 KW X-ray Powder diffractometer of make Rigaku having a Copper Kα-radiation at a voltage of 40 kV and 30 mA. Approximately 150 mg sample was gently flattened on a quartz plate without further processing (e.g. Grinding and sieving) and scanned from 4° to 40° at 0.010° sampling width and 4.000° per minute. • IR Spectroscopy: The IR spectra was performed on 8400S of make Shimadzu by using KBr pellet and recorded from 4000 to 400 cm^−1. About 2 mg of sample was triturated with 300 mg of finely powdered and dried potassium bromide. The mixture was carefully grinded, spread uniformly in a suitable die and submitted it in vacuum to a pressure of about 800 MPa […]. From the FTIR spectrum a blank FT-IR spectrum of KBr was subtracted. The blank IR spectrum was recorded prior to the measurement of the samples.
Differential Scanning Calorimetry (DSC): Melting points are determined by means of a DSC thermogram using a Pyris-1 make Perkin Elmer. DSC (Differential Scanning Calorimetry) is the technique of dynamic differential Calorimetry. Using this technique, the melting temperature can be measured by heating the sample until a thermal, i.e. an endothermic or exothermic, reaction is detected by means of ultrasensitive sensors. The DSC cell/sample chamber was purged with 100 ml/min of ultra-high purity nitrogen. The instrument was calibrated with high purity Indium. The sample was placed into an open aluminum DSC pan and measured against an empty reference pan. About 2 mg of sample being placed into the bottom of the pan and lightly tapped down to ensure good contact with the pan. The instrument was programmed to heat at a heating rate of 10° C./min in the temperature range between 50° C. and 300° C. • Microscope: A Lieca Microscope with Linkam Hot stage microscopy (TMS-94) system with polarized light, CCD camera and Linksys 32 data software. • HPLC: High Performance Liquid Chromatography Separation Module with PDA detector, Make Waters, Model No 2695. • KF: Moisture content was analyzed by using Karl Fisher Autotitrator 795 KFT Titrino make Metrohm.

[1] = 5° C. ± 3° C. (Refrigerator), Month 1
[2] = 5° C. ± 3° C. (Refrigerator), Month 2
[3] = 5° C. ± 3° C. (Refrigerator), Month 3
[4] = 5° C. ± 3° C. (Refrigerator), Month 6
[5] = 25° C. ± 2° C./60% ±5% RH, Month 1
[6] = 25° C. ± 2° C./60% ±5% RH, Month 2
[7] = 25° C. ± 2° C./60% ±5% RH, Month 3
[8] = 25° C. ± 2° C./60% ±5% RH, Month 6
[9] = 30° C. ± 2° C./65% ±5% RH (Real Time), Month 1
[10] = 30° C. ± 2° C./65% ±5% RH (Real Time), Month 2
[11] = 30° C. ± 2° C./65% ±5% RH (Real Time), Month 3
[12] = 30° C. ± 2° C./65% ±5% RH (Real Time), Month 6
[13] = 40° C. ± 2° C./75% ±5% RH, Month 1
[14] = 40° C. ± 2° C./75% ±5% RH, Month 2
[15] = 40° C. ± 2° C./75% ±5% RH, Month 3
[16] = 40° C. ± 2° C./75% ±5% RH, Month 6

SMILES: C#Cc1cccc(Nc2ncnc3cc(OCCOC)c(OCCOC)cc23)c1.Cl [Erlotinib hydrochloride, 4-(3-Ethynylphenylamino)-6,7-bis(2-methoxyethoxy)-quinazoline]
- DSC [1]: Complies
- IR [1]: Complies
- PXRD [1]: Complies
- DSC [2]: Complies
- IR [2]: Complies
- PXRD [2]: Complies
- DSC [3]: Complies
- IR [3]: Complies
- PXRD [3]: Complies
- DSC [4]: Complies
- IR [4]: Complies
- PXRD [4]: Complies
- DSC [5]: Complies
- IR [5]: Complies
- PXRD [5]: Complies
- DSC [6]: Complies
- IR [6]: Complies
- PXRD [6]: Complies
- DSC [7]: Complies
- IR [7]: Complies
- PXRD [7]: Complies
- DSC [8]: Complies
- IR [8]: Complies
- PXRD [8]: Complies
- DSC [9]: Complies
- IR [9]: Complies
- PXRD [9]: Complies
- DSC [10]: Complies
- IR [10]: Complies
- PXRD [10]: Complies
- DSC [11]: Complies
- IR [11]: Complies
- PXRD [11]: Complies
- DSC [12]: Complies
- IR [12]: Complies
- PXRD [12]: Complies
- DSC [13]: Complies
- IR [13]: Complies
- PXRD [13]: Complies
- DSC [14]: Complies
- IR [14]: Complies
- PXRD [14]: Complies
- DSC [15]: Complies
- IR [15]: Complies
- PXRD [15]: Complies
- DSC [16]: Complies
- IR [16]: Complies
- PXRD [16]: Complies
- retention of polymorphic and chemical identity on storage (both stability studies, all storage conditions): retained the same polymorphic and chemical identity at least up to six months
